Literature values, collected in patent US9006270B2, “Polymorphs of (S)-pyrrolidine-1,2-dicarboxylic acid 2-amide 1-({4-methyl-5-[2-(2,2,2-trifluoro-1,1-dimethyl-ethyl)-pyridin-4-yl]-thiazol-2-yl}-amide” (Novartis AG, priority 2011, dated 2015).

System: phosphatidylinositol 3-kinase (PI3K)
Conditions: described in WO 2010/029082

Cc1nc(NC(=O)N2CCC[C@H]2C(N)=O)sc1-c1ccnc(C(C)(C)C(F)(F)F)c1 [Compound I, (S)-pyrrolidine-1,2-dicarboxylic acid 2-amide 1-(4-methyl-5-[2-(2,2,2-trifluoro-1,1-dimethyl-ethyl)-pyridin-4-yl]-thiazol-2-yl)-amide]
activity against the phosphatidylinositol 3-kinase (PI3K): demonstrated activity
